Several values for one entry are separate records, joined by “and”; a condition that tells them apart may be missing. Identical values can stand only once.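 48-hour exposure; five concentrations; linearly interpolated endpoints. GI50: concentration for 50% inhibition of growth. TGI: concentration producing complete growth inhibition.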
Each compound was assayed on MDA-MB-468 breast (assay: DTP human tumour cell line panel, 48 h).
`COC(=O)[C@H]1[C@H]2C[C@@H]3c4[nH]c5cc(OC)ccc5c4CCN3C[C@H]2C[C@@H](OC(=O)/C=C/c2cc(OC)c(OC)c(OC)c2)[C@@H]1OC` showed a GI50 of 3270 nM and a TGI of 11600 nM.
In the case of `N=c1ccc2nc3c(cc(N)c4ccccc43)oc-2c1`, the GI50 is reported as 86.5 nM and the TGI is reported as 423 nM.
`CC[C@@]12C=CCN3CC[C@]4(c5cc(NC(=O)COc6cc(OCC(=O)Nc7cc8c(cc7OC)N(C)[C@H]7[C@@](O)(C(=O)OC)[C@H](OC(C)=O)[C@]9(CC)C=CCN%10CC[C@]87[C@@H]%109)cc7oc(-c8ccccc8)cc(=O)c67)c(OC)cc5N(C)[C@@H]4[C@](O)(C(=O)OC)[C@H]1OC(C)=O)[C@H]32` gave a GI50 of 2250 nM and a TGI of 8870 nM.
`CC1(C)[C@@H](OC(N)=O)C=C[C@]2(CO)[C@H]3CC[C@]4(C)[C@@H](c5ccc(=O)oc5)[C@@H](Cl)C[C@]4(O)C3=CC[C@@H]12` showed a GI50 of 14.9 nM and a TGI of 67.4 nM.
Compound `COc1ccc(/C=C\c2cc(OC)c(OC)c(OC)c2)c(NS(=O)(=O)c2ccc(Cl)cc2)c1O` has a GI50 of 36.7 nM and a TGI of 15000 nM.
Work on `Oc1c(CN2CCCC2)cc(CSCc2ccccc2)c2cccnc12` yielded a GI50 of 1200 nM and a TGI of 3240 nM.
For `Oc1c(Cl)cc(Cl)cc1Sc1cc(Cl)cc(Cl)c1O`, the GI50 was 2810 nM and 2590 nM and the TGI was 8850 nM and 7830 nM.
`CC[C@H](Nc1nc(N)nc(C2CC2)c1C#N)c1nc2cccc(NCc3ccc(C(=O)NO)cc3)c2c(=O)n1-c1ccccc1` was tested, and the GI50 was 1730 nM and the TGI was 4870 nM.
In the case of `Cc1cnc(Nc2ccc(OCCN3CCCC3)cc2)nc1Nc1cccc(S(=O)(=O)NC(C)(C)C)c1`, the GI50 is reported as 74.1 nM and 483 nM and the TGI is reported as 792 nM and 3110 nM.
`CC(C)(C)n1cc(-c2ccnc(NCCCNS(=O)(=O)c3ccc(Br)cc3)c2)c(-c2cccc(O)c2)n1` was tested, and the GI50 was 2100 nM and the TGI was 4800 nM.
`CCCCCCNC(=O)n1cc(F)c(=O)[nH]c1=O` showed a GI50 of 10000 nM and a TGI of 26300 nM.
In the case of `CC(=O)c1cc(-c2ccccc2N)n(-c2ccc3c(c2)OCO3)c1C`, the GI50 is reported as 50.7 nM and the TGI is reported as > 72100 nM.
For `CNCCNc1nc2ccccc2c2c(=O)c3cc(F)ccc3sc12`, the GI50 was 1700 nM and the TGI was 3460 nM.
`CCCCCCNC(=O)Oc1ccc(/C(=C(/C)Cc2ccc(OC)cc2)c2ccc(OCCN(C)C)cc2)cc1` gave a GI50 of 5400 nM and a TGI of 10600 nM.
With `CC(=O)c1cccc(-c2cccc(-c3ccn(CCN4CCOCC4)n3)c2)c1` the GI50 was 15200 nM and the TGI was > 20000 nM.
In the case of `CCOC(=O)Nc1nc2cc(OCC)ccc2s1`, the GI50 is reported as 2620 nM and the TGI is reported as > 100000 nM.
Work on `CC12CC=CCC1CCC1C2CCC2(C)C(c3ccc(=O)oc3)CCC12O` (centres undefined) yielded a GI50 of 276 nM and a TGI of 858 nM.
Compound `C/C(=C(/c1ccc(O)cc1)c1ccc(Cl)cc1)c1ccccc1` has a GI50 of 601 nM and a TGI of 2020 nM.
In the case of `COc1cc2ncnc3c2cc1OCCCCCN(C)Cc1ccc(Br)cc1N3`, the GI50 is reported as 46.3 nM and 39.3 nM and the TGI is reported as 400 nM and 453 nM.
With `CC[C@]1(O)C[C@@H]2CN(CCc3c([nH]c4ccccc34)[C@@](C(=O)OC)(c3cc4c(cc3OC)N(C)[C@H]3[C@@](O)(C(N)=O)[C@H](O)[C@]5(CC)[C@@H]6C[C@@H]6CN6CC[C@]43[C@@H]65)C2)C1` the GI50 was < 3.33 nM and the TGI was 262 nM.
`CCCCNC(=O)Oc1ccc(/C(=C(/CC)Cc2ccccc2)c2ccc(OCCN3CCCCCC3)cc2)cc1` was tested, and the GI50 was 21500 nM and the TGI was 46900 nM.
`C[C@]12CC[C@@H](OC(=O)N(CCCl)N=O)C[C@@H]1CC[C@@H]1[C@@H]2CC[C@]2(C)C(=O)CC[C@@H]12` gave a GI50 of 867 nM and a TGI of 12300 nM.
For `COc1cc(/C=C2\CN(C(=O)CCN3CCC(=NO)CC3)C/C(=C\c3cc(OC)c(OC)c(OC)c3)C2=O)cc(OC)c1OC`, the GI50 was 342 nM and the TGI was 1270 nM.
`CCCCN(CCCC)CCc1c(C)cc(C)c(CCN(CCCC)CCCC)c1O` showed a GI50 of 1830 nM and a TGI of 5510 nM.
In the case of `COc1ccc([C@@H](O)c2cc(-c3ncnc4cc(N5CCOCC5)ccc34)c(F)cc2Cl)nn1`, the GI50 is reported as 1690 nM and the TGI is reported as 8260 nM.
In the case of `Cn1cc(C2=C(c3cn(C)c4cc(N)ccc34)C(=O)NC2=O)c2ccccc21`, the GI50 is reported as 1560 nM and the TGI is reported as 7970 nM.
In the case of `CCN1C(=O)N(CC)C2SC(N/N=C/c3ccc(F)cc3)=NC21` (centres undefined), the GI50 is reported as 400 nM.
With `Clc1ccc2c(c1)C(N1CCNCC1)=Nc1ccccc1O2` the GI50 was 1220 nM and the TGI was 2480 nM.
With `COc1ccc(NC(=O)n2nc(/C=C\c3ccc(O)c(OC)c3)cc2/C=C\c2ccc(O)c(OC)c2)cc1` the GI50 was 3550 nM and the TGI was 21600 nM.
Work on `Cc1cc2nc(-c3c(N)ncc(C#N)c3-c3ccc(Cl)cc3)[nH]c2cc1C` yielded a GI50 of 12400 nM and a TGI of 51500 nM.
`NC(=O)c1c(NC(=O)c2ccccc2C(F)(F)F)sc2c1CCC(=O)C2` was tested, and the GI50 was 2250 nM and the TGI was 6090 nM.
`CNCCNc1nc2ccccc2c2c(=O)c3cc(OC)ccc3sc12` gave a GI50 of 1490 nM and a TGI of 3030 nM.
In the case of `CC(C(=O)O)c1ccc(-c2ccccc2)c(F)c1` (centres undefined), the GI50 is reported as > 100000 nM and the TGI is reported as > 100000 nM.
For `COc1cc2c(c(OC)c1OC)-c1ccc(O)c(=O)cc1[C@@H](NC(C)=O)CC2`, the GI50 was 4110 nM and the TGI was 27500 nM.
Compound `C[PH+](c1nc2ccccc2nc1[PH+](C)C(C)(C)C)C(C)(C)C.C[PH+](c1nc2ccccc2nc1[PH+](C)C(C)(C)C)C(C)(C)C.[Au+].[Cl-]` (centres undefined) has a GI50 of 24.8 nM and a TGI of 90.4 nM.

Source: PubChem BioAssay (NCI)
